Experimental data taken from ChEMBL document CHEMBL1671654, “In vivo activity of the pyrrolopyrazolyl-substituted oxazolidinone RWJ-416457” (Antimicrob Agents Chemother, 2009).
Active and inactive are the calls of the source. No cut-off for these calls is given here.

Experiments:
[1] = system: Staphylococcus aureus; test: Antibacterial activity against methicillin-susceptible Staphylococcus aureus ATCC 13709 infected in sc dosed Swiss Webster mouse administered at 1 to 3 hrs post infection measured after 3 days; assay type: functional; details: ATCC 13709, sc
[2] = system: Staphylococcus aureus; test: Antibacterial activity against community-associated methicillin-resistant Staphylococcus aureus OC8525 infected in sc dosed Swiss Webster mouse administered at 1 to 3 hrs post infection measured after 3 days; assay type: functional
[3] = system: Staphylococcus aureus; test: Antibacterial activity against methicillin-susceptible Staphylococcus aureus ATCC 13709 infected in iv dosed Swiss Webster mouse administered at 1 to 3 hrs post infection measured after 3 days; assay type: functional; details: ATCC 13709, iv
[4] = system: Staphylococcus aureus; test: Antibacterial activity against community-associated methicillin-resistant Staphylococcus aureus OC8525 infected in iv dosed Swiss Webster mouse administered at 1 to 3 hrs post infection measured after 3 days; assay type: functional
[5] = system: Staphylococcus aureus; test: Bacteriostatic activity against methicillin-susceptible Staphylococcus aureus Smith ATCC 13709 infected in SKH1 mouse upto 25 mg/kg/day, sc administered post infection measured after 48 hrs; assay type: functional, organism-based
[6] = system: Staphylococcus aureus; test: Antibacterial activity against community-associated methicillin-resistant Staphylococcus aureus OC8525 infected in SKH1 mouse assessed as log reduction in CFU/g skin up to 25 mg/kg/day, sc administered post infection measured after 48 hrs; assay type: functional, organism-based

## CN[C@H](CC(C)C)C(=O)N[C@H]1C(=O)N[C@@H](CC(N)=O)C(=O)N[C@H]2C(=O)N[C@H]3C(=O)N[C@H](C(=O)N[C@H](C(=O)O)c4cc(O)cc(O)c4-c4cc3ccc4O)[C@H](O)c3ccc(c(Cl)c3)Oc3cc2cc(c3O[C@@H]2O[C@H](CO)[C@@H](O)[C@H](O)[C@H]2O[C@H]2C[C@](C)(N)[C@H](O)[C@H](C)O2)Oc2ccc(cc2Cl)[C@H]1O [VANCOMYCIN]
[1]
  ED50: 1.7 mg/kg/day
[2]
  ED50: 12 mg/kg/day
[3]
  ED50: 0.9 mg/kg/day
[4]
  ED50: 5.6 mg/kg/day
[5]
  Activity: Active
[6]
  Activity: inactive
